Data taken from patent US12077503B2, “Substituted cyclic amides and their use as herbicides” (FMC CORPORATION, priority 2015, dated 2024).

Assays:
Format in all cases: in vivo
[1] = test system: johnsongrass (Sorghum halepense); assay: Test E preemergence; conditions: scale 0 to 100
In short: (§1)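 Greenhouse test: seeds in silt loam treated preemergence, or 1- to 4-leaf plants in peat-based potting medium treated postemergence, with surfactant-containing solvent formulation of compound; assessed 14 to 21 d later. Scores use a 0 to 100 scale where 100 means complete control.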

[2] = test system: morningglory (Ipomoea coccinea); assay: Test E preemergence; conditions: scale 0 to 100
In short: as §1

[3] = test system: nutsedge, yellow (yellow nutsedge, Cyperus esculentus); assay: Test E preemergence; conditions: scale 0 to 100
In short: as §1

[4] = test system: foxtail, giant (giant foxtail, Setaria faberii); assay: Test E preemergence; conditions: scale 0 to 100
In short: as §1

[5] = test system: nightshade (eastern black nightshade, Solanum ptycanthum); assay: Test E preemergence; conditions: scale 0 to 100
In short: as §1

[6] = test system: barnyardgrass (Echinochloa crus-galli); assay: Test G Post-Emergence Protocol; conditions: Echinochloa crus-galli, post-emergence, 312 h; for pest or weed control at 15.625 g/ha: 15.625 g ai/ha, evaluated after 13 days (100=total damage to plant; 0=no damage to plant), read-out: Barnyardgrass damage rating; for pest or weed control at 62.5 g/ha: 62.5 g ai/ha, read-out: Barnyardgrass damage rating (100=total damage to plant; 0=no damage to plant); for pest or weed control at 62.5 g/ha / pest or weed control at 250 g/ha: evaluated after 13 days; for pest or weed control at 250 g/ha: 250 g ai/ha, read-out: damage to plant, Barnyardgrass (100=total damage to plant; 0=no damage to plant)
Description: (§2) Seeds of corn (Zea mays), giant foxtail (Setaria faberi), barnyardgrass (Echinochloa crus-galli), ivy-leaved morning glory (Ipomoea hederacea), redroot pigweed (Amaranthus retroflexus) and velvetleaf (Abutilon theophrasti) were sown in standard soil in pots. After cultivation for 8 days under controlled conditions in a glasshouse (at 24/16° C., day/night; 14 hours light; 65% humidity), the plants were sprayed with an aqueous spray solution derived from the formulation of the technical active ingredient in acetone/water (50:50) solution containing 0.5% Tween 20 (polyoxyethylene sorbitan monolaurate, CAS RN 9005-64-5) to give a final dose of 15.625, 62.5 or 250 g/ha of test compound.
(§3) The test plants were then grown on under controlled conditions in a glasshouse (at 24/16° C., day/night; 14 hours light; 65% humidity) and watered twice daily. After 13 days the test was evaluated (100=total damage to plant; 0=no damage to plant). A dash (-) means no test result.

[7] = test system: giant foxtail (Setaria faberi); assay: Test G Post-Emergence Protocol; conditions: Setaria faberi, post-emergence, 312 h; for pest or weed control at 15.625 g/ha: 15.625 g ai/ha, evaluated after 13 days (100=total damage to plant; 0=no damage to plant), read-out: Foxtail, Giant damage rating; for pest or weed control at 62.5 g/ha: 62.5 g ai/ha, read-out: Foxtail, Giant damage rating (100=total damage to plant; 0=no damage to plant); for pest or weed control at 62.5 g/ha / pest or weed control at 250 g/ha: evaluated after 13 days; for pest or weed control at 250 g/ha: 250 g ai/ha, read-out: damage to plant, Foxtail, Giant (100=total damage to plant; 0=no damage to plant)
Description: as §2, §3

[8] = test system: ivy-leaved morning glory (Ipomoea hederacea); assay: Test G Post-Emergence Protocol; conditions: Ipomoea, post-emergence, 312 h; for pest or weed control at 15.625 g/ha: 15.625 g ai/ha, evaluated after 13 days (100=total damage to plant; 0=no damage to plant), read-out: Morningglory, Ivy-leaved damage rating; for pest or weed control at 62.5 g/ha: 62.5 g ai/ha, read-out: Morningglory, Ivy-leaved damage rating (100=total damage to plant; 0=no damage to plant); for pest or weed control at 62.5 g/ha / pest or weed control at 250 g/ha: evaluated after 13 days; for pest or weed control at 250 g/ha: 250 g ai/ha, read-out: damage to plant, Morningglory, Ivy-leaved (100=total damage to plant; 0=no damage to plant)
Description: as §2, §3

corn (Zea mays) = assay: Test G Post-Emergence Protocol; conditions: Zea mays, post-emergence, 312 h; for plant injury at 15.625 g/ha: 15.625 g ai/ha, evaluated after 13 days (100=total damage to plant; 0=no damage to plant), read-out: Corn damage rating; for plant injury at 62.5 g/ha: 62.5 g ai/ha, read-out: Corn damage rating (100=total damage to plant; 0=no damage to plant); for plant injury at 62.5 g/ha / plant injury at 250 g/ha: evaluated after 13 days; for plant injury at 250 g/ha: 250 g ai/ha, read-out: damage to plant, Corn (100=total damage to plant; 0=no damage to plant)
Description: as §2, §3

[9] = test system: speedwell (bird's-eye speedwell, Veronica persica); assay: Test D preemergence; conditions: scale 0 to 100
In short: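 Seeds of the weed and crop species were sown in silt loam soil and treated preemergence with compounds formulated in a non-phytotoxic solvent mixture containing surfactant. After about 21 d in a controlled growth environment, plants were visually rated against untreated controls on a 0–100 scale (0 = no effect, 100 = complete control).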

Row | Compound | Plant response rating: Johnsongrass ([1]; 31 g ai/ha) | Plant response rating: Johnsongrass ([1]; 62 g ai/ha) | Plant response rating: Johnsongrass ([1]; 125 g ai/ha) | Plant response rating: Johnsongrass ([1]; 250 g ai/ha) | Plant response rating: Morningglory ([2]; 31 g ai/ha) | Plant response rating: Morningglory ([2]; 62 g ai/ha) | Plant response rating: Morningglory ([2]; 125 g ai/ha) | Plant response rating: Morningglory ([2]; 250 g ai/ha) | Plant response rating: Nutsedge, Yellow ([3]; 31 g ai/ha) | Plant response rating: Nutsedge, Yellow ([3]; 62 g ai/ha) | Plant response rating: Nutsedge, Yellow ([3]; 125 g ai/ha) | Plant response rating: Nutsedge, Yellow ([3]; 250 g ai/ha) | Plant response rating: Foxtail, Giant ([4]; 31 g ai/ha) | Plant response rating: Foxtail, Giant ([4]; 62 g ai/ha) | Plant response rating: Foxtail, Giant ([4]; 125 g ai/ha) | Plant response rating: Foxtail, Giant ([4]; 250 g ai/ha) | Plant response rating: Nightshade ([5]; 31 g ai/ha) | Plant response rating: Nightshade ([5]; 62 g ai/ha) | Plant response rating: Nightshade ([5]; 125 g ai/ha) | Plant response rating: Nightshade ([5]; 250 g ai/ha) | also measured
1 | CN1CC(c2cccc(C(F)(F)F)c2)C(C(=O)Nc2cccc(F)c2F)C1=O (stereo not shown) [Compound 636] | 90 | 95 | 95 | 98 | 0 | 0 | 0 | 0 | 0 | 0 | 0 | 60 | 95 | 95 | 95 | 95 | 0 | 0 | 40 | 50 | 
2 | Cc1ccc([C@H]2CN(C)C(=O)[C@@H]2C(=O)Nc2ccc(F)nc2F)cc1 [Compound 1402] |  |  |  |  |  |  |  |  |  |  |  |  |  |  |  |  |  |  |  |  | pest or weed control at 15.625 g/ha [6]: 80%; pest or weed control at 62.5 g/ha [6]: 80%; pest or weed control at 250 g/ha [6]: 80%; pest or weed control at 15.625 g/ha [7]: 80%; pest or weed control at 62.5 g/ha [7]: 80%; pest or weed control at 250 g/ha [7]: 80%; pest or weed control at 15.625 g/ha [8]: 10%; pest or weed control at 62.5 g/ha [8]: 40%; pest or weed control at 250 g/ha [8]: 60%; plant injury at 15.625 g/ha (corn (Zea mays)): 70%; plant injury at 62.5 g/ha (corn (Zea mays)): 80%; plant injury at 250 g/ha (corn (Zea mays)): 80%
3 | Cc1ccc([C@H]2CN(C)C(=O)[C@@H]2C(=O)Nc2cccnc2F)cc1 [Compound 1398] |  |  |  |  |  |  |  |  |  |  |  |  |  |  |  |  |  |  |  |  | pest or weed control at 15.625 g/ha [6]: 80%; pest or weed control at 62.5 g/ha [6]: 80%; pest or weed control at 250 g/ha [6]: 80%; pest or weed control at 15.625 g/ha [7]: 80%; pest or weed control at 62.5 g/ha [7]: 80%; pest or weed control at 250 g/ha [7]: 80%; pest or weed control at 15.625 g/ha [8]: 0%; pest or weed control at 62.5 g/ha [8]: 40%; pest or weed control at 250 g/ha [8]: 60%; plant injury at 15.625 g/ha (corn (Zea mays)): 30%; plant injury at 62.5 g/ha (corn (Zea mays)): 70%; plant injury at 250 g/ha (corn (Zea mays)): 80%
4 | CN1CC(c2ccc(C(F)(F)F)cc2)C(C(=O)Nc2ccccc2S(C)(=O)=O)C1=O (stereo not shown) [Compound 624] | 0 | 0 | 35 |  | 10 | 20 | 50 | 40 | 0 | 0 | 0 | 10 | 20 | 50 | 70 | 85 | 70 | 75 | 80 | 80 | Plant response rating: Speedwell ([9]; 31 g ai/ha): 90; Plant response rating: Speedwell ([9]; 62 g ai/ha): 90; Plant response rating: Speedwell ([9]; 125 g ai/ha): 100; Plant response rating: Speedwell ([9]; 250 g ai/ha): 100
5 | CN1CC(c2cccc(C(F)(F)F)c2)C(C(=O)Nc2ccccc2S(C)(=O)=O)C1=O (stereo not shown) [Compound 637] | 0 | 0 | 25 | 60 | 0 | 0 | 35 | 35 | 0 | 0 | 0 | 35 | 75 | 95 | 98 | 98 | 0 | 15 | 25 | 40 | Plant response rating: Speedwell ([9]; 31 g ai/ha): 15; Plant response rating: Speedwell ([9]; 62 g ai/ha): 60; Plant response rating: Speedwell ([9]; 125 g ai/ha): 100; Plant response rating: Speedwell ([9]; 250 g ai/ha): 100
